Measured values reported in ChEMBL document CHEMBL4052647, “Synthesis and pharmacological evaluation of novel chromone derivatives as balanced multifunctional agents against Alzheimer's disease” (Bioorg Med Chem, 2017).
Active and inactive are the calls of the source. The rule behind the calls is not given here.

Columns and labels:
[1] = Antioxidant activity assessed as trolox equivalent of […]-induced radical scavenging activity at 1 to 10 uM preincubated for 15 mins followed by AAPH addition measured every minute for 120 mins by ORAC fluorescein assay; type: functional
[2] = target: T1, Amine oxidase [flavin-containing] A (Homo sapiens, UniProt P21397); experiment: Inhibition of recombinant human MAO-A expressed in baculovirus infected BTI insect cells using p-tyramine as substrate pretreated for 15 mins followed by substrate addition after 20 mins by Amplex red reagent based fluorimetric method
T1 sequence (P21397 whole entry): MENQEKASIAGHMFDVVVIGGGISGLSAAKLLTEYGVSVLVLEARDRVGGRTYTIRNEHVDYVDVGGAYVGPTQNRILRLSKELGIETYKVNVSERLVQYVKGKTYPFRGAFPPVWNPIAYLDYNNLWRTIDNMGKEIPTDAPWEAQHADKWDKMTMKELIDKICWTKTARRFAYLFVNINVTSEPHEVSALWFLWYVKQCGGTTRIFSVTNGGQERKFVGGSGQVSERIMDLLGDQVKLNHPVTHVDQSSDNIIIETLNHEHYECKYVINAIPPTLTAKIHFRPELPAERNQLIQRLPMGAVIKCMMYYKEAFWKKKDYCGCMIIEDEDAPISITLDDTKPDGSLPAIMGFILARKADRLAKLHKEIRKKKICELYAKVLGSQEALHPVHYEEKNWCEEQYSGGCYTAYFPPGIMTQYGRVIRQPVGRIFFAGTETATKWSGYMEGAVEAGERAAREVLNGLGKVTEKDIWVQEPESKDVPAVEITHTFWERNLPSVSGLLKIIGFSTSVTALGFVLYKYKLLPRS

[3] = target: T2, Amine oxidase [flavin-containing] B (Homo sapiens, UniProt P27338); experiment: biochemical; type: cell-based
T2 sequence (P27338 whole entry): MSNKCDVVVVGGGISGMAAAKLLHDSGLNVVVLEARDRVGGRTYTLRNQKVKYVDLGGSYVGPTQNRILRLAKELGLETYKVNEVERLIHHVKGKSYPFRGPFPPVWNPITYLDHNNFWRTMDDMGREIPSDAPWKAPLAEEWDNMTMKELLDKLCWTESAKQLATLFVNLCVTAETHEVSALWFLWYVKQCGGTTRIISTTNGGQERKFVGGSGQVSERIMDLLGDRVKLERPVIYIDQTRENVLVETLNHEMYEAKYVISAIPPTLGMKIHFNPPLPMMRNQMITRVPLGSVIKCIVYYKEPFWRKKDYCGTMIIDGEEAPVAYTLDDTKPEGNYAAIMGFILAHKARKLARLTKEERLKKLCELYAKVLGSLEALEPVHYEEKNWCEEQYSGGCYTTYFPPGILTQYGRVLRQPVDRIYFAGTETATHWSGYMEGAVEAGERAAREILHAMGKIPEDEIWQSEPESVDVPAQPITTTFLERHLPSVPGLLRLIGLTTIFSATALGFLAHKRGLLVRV
Description: Inhibition of recombinant human MAO-B expressed in baculovirus infected BTI insect cells using p-tyramine as substrate pretreated for 15 mins followed by substrate addition after 20 mins by Amplex red reagent based fluorimetric method

[4] = organism: Homo sapiens; experiment: Selectivity index, ratio of IC50 for recombinant human MAO-A expressed in baculovirus infected BTI insect cells to IC50 for recombinant human MAO-B expressed in baculovirus infected BTI insect cells
[5] = target: Amyloid-beta precursor protein (Homo sapiens) (UniProt P05067); experiment: Inhibition of HFIP-pretreated amyloid beta (1 to 42) (unknown origin) self-induced aggregation at 20 uM after 46 to 48 hrs by thioflavin-T fluorescence assay relative to control
[6] = tested on: PC-12; experiment: Cytotoxicity against rat PC12 cells at 20 uM after 24 hrs by MTT assay; type: cell-based; conditions: pc-12, 24 h
[7] = tested on: PC-12; experiment: Neuroprotective activity against H2O2-induced cell death in rat PC12 cells assessed as increase in cell viability at 10 uM pretreated for 24 hrs followed by H2O2 induction after 24 hrs by MTT assay; type: functional, cell-based
[8] = physchem; conditions: PAMPA
[9] = physchem; conditions: PAMPA, pH 7.4
[10] = target: Amyloid-beta precursor protein (Homo sapiens) (UniProt P05067); experiment: Potency index, ratio of compound effect to curcumin effect for inhibition of HFIP-pretreated amyloid beta (1 to 42) (unknown origin) self-induced aggregation at 20 uM
[11] = Metal chelating activity assessed as inhibition of Cu2+-induced amyloid beta (1 to 42 residues) aggregation at 50 uM after 24 hrs by thioflavin-T fluorescence assay (reference value: 142%)
[12] = Metal chelating activity assessed as inhibition of Cu2+-induced amyloid beta (1 to 42 residues) aggregation by measuring reduction in amyloid fibrils at 50 uM […] by uranyl acetate staining based transmission electron microscopic analysis
[13] = Metal chelating activity of the compound assessed as formation of Cu2+-compound complex at 50 uM after 30 mins by UV-vis spectrophotometric method
[14] = Metal chelating activity of the compound assessed as formation of ferric-compound complex at 50 uM after 30 mins by UV-vis spectrophotometric method
[15] = Metal chelating activity of the compound assessed as formation of ferrous-compound complex at 50 uM after 30 mins by UV-vis spectrophotometric method
[16] = Metal chelating activity of the compound assessed as formation of Cu2+-compound complex at 50 uM after 20 mins by fluorescence emission spectral analysis
[17] = Metal chelating activity of the compound assessed as formation of ferric-compound complex at 50 uM after 20 mins by fluorescence emission spectral analysis
[18] = Metal chelating activity of the compound assessed as formation of ferrous-compound complex at 50 uM after 20 mins by fluorescence emission spectral analysis
[19] = Metal chelating activity of the compound assessed as formation of zinc-compound complex at 50 uM after 20 mins by fluorescence emission spectral analysis
[20] = Metal chelating activity assessed as mole fraction of compound required to show 1:1 stoichiometry for Cu2+-compound complex by Job's plot method
[21] = tested on: PC-12; experiment: Neuroprotective activity against H2O2-induced cell death in rat PC12 cells assessed as increase in cell viability at 1 to 5 uM pretreated for 24 hrs followed by H2O2 induction after 24 hrs by MTT assay; type: functional, cell-based
[22] = tested on: PC-12; experiment: Neuroprotective activity against H2O2-induced cell death in rat PC12 cells assessed as increase in cell viability at 20 uM pretreated for 24 hrs followed by H2O2 induction after 24 hrs by MTT assay; type: functional, cell-based
[23] = tested on: PC-12; experiment: Neuroprotective activity against H2O2-induced oxidative stress in rat PC12 cells assessed as reduction in intracellular reactive oxygen species level after 24 hrs by DCFH-DA probe based flow cytometric analysis; type: functional, cell-based

Sequence of Amyloid-beta precursor protein (Homo sapiens) (P05067 whole entry, the tested form may be a part): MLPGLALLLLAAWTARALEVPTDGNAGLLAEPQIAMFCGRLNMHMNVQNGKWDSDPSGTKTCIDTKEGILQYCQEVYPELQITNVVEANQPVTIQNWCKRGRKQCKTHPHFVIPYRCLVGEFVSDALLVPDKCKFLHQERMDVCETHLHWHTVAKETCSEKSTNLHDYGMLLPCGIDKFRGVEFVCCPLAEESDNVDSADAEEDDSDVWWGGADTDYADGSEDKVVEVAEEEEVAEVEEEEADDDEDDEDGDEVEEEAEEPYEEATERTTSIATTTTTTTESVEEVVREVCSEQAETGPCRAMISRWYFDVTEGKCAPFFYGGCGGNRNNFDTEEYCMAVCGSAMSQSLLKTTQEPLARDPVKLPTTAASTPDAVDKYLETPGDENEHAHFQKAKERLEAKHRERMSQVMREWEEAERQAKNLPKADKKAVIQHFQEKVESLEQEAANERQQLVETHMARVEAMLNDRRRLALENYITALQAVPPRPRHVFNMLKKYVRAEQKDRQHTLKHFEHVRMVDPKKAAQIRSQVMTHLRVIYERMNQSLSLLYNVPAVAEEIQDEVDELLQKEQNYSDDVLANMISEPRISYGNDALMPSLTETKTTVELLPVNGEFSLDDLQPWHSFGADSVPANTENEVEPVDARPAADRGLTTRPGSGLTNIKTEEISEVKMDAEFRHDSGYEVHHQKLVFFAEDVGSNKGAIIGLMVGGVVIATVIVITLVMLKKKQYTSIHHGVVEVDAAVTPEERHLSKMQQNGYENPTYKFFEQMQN

SMILES	Activity [1] [equiv]	IC50 [2] [µM]	IC50 [3] [µM]	Ratio IC50 [4]	inhibition [5] [%]	Activity [6]	further results
Cc1ccc(/N=C/c2coc3ccc(C)cc3c2=O)c(O)c1	2.48	20.8	21.4	0.97	45.6	Non-Toxic	
O=c1c(/C=N/c2ccc(Cl)cc2O)coc2ccc(Br)cc12	1.92	3.18	1.29	2.47	87.6	Non-Toxic	
O=c1c(/C=N/c2cccc(Cl)c2O)coc2ccccc12	2.01	1.65	14.5	0.11	79.5	Non-Toxic	
Cc1ccc2occ(/C=N/c3cc(F)ccc3O)c(=O)c2c1	2.92	3.83	2.34	1.64	87.3	Non-Toxic	
O=c1c(/C=N/c2cc(F)ccc2O)coc2ccc(Br)cc12	2.68	3.09	0.825	3.75	79.1	Non-Toxic	
Cc1ccc2occ(/C=N/c3ccc(Cl)cc3O)c(=O)c2c1	3.41	2.62	0.915	2.86	48.3	Non-Toxic	Activity [7]: Active; Papp at 16 h [8]: 5.57 ×10⁻⁶ cm/s
CCn1cc(C(=O)O)c(=O)c2cc(F)c(N3CCNC(C)C3)c(F)c21 (configuration not stated) [LOMEFLOXACIN]							Papp at 18 h, 25 ug/ml [9]: 1.9 ×10⁻⁶ cm/s; Papp at 16 h [8]: 3.1 ×10⁻⁶ cm/s
Cc1ccc(O)c(/N=C/c2coc3ccccc3c2=O)c1	2.43	3.34	1.13	2.96	58.1	Non-Toxic	
O=c1c(/C=N/c2ccc(Cl)cc2O)coc2ccccc12	2.36	1.42	1.78	0.8	51.5	Non-Toxic	
Cc1ccc(O)c(/N=C/c2coc3ccc(Br)cc3c2=O)c1	0.784	7.14	1.12	6.38	89.5	Non-Toxic	Ratio [10]: 1.9
COc1ccc2[nH]cc(CCNC(C)=O)c2c1	2.05						
Cc1ccc2occ(/C=N/c3ncccc3O)c(=O)c2c1	2.03	7.35	2.03	3.62	63.4	Non-Toxic	
O=c1c(/C=N/c2cc3ccccc3cc2O)coc2ccccc12	1.82	3.35	6.42	0.52	66.5	Non-Toxic	
Cc1ccc(O)c(/N=C/c2coc3ccc(C)cc3c2=O)c1	3.62	5.12	0.816	6.21	75.1	Non-Toxic	inhibition [11]: 60.3%; inhibition [12]: Active; Activity [13]: Active; Activity [14]: Active; Activity [15]: Active; Activity [16]: Active; Activity [17]: Active; Activity [18]: Active; Activity [19]: Active; Activity [20]: 0.55 molar ratio; Activity [21]: Active; Activity [7]: inactive; Activity [22]: inactive; Activity [23]: Dose-dependent effect; Papp at 16 h [8]: 4.94 ×10⁻⁶ cm/s
O=c1c(/C=N/c2cccc(Cl)c2O)coc2ccc(Br)cc12	2.6	4.47	2.27	1.97	68.1	Non-Toxic	Papp at 16 h [8]: 4.81 ×10⁻⁶ cm/s
O=c1c(/C=N/c2ccc(F)cc2O)coc2ccc(Br)cc12	2.73	2.72	0.764	3.56	71.5	Non-Toxic	
Oc1ccc(/C=C/c2cc(O)cc(O)c2)cc1					57.2		inhibition [11]: 63.3%; inhibition [12]: Active
O=c1c(/C=N/c2ccccc2O)coc2ccccc12	2.39	6.81	31.5	0.22	65.2	Non-Toxic	
Cc1ccc2occ(/C=N/c3cc([N+](=O)[O-])ccc3O)c(=O)c2c1	2.73	7.27	1.64	4.43	71.2	Non-Toxic	
O=c1c(/C=N/c2cc(F)ccc2O)coc2ccccc12	2.6	4.65	1.78	2.61	64.5	Non-Toxic	
Cc1ccc2occ(/C=N/c3cc(Cl)ccc3O)c(=O)c2c1	2.61	2.15	0.634	3.39	71.9	Non-Toxic	
O=c1c(/C=N/c2cc(Cl)ccc2O)coc2ccccc12	2.24	1.94	19.2	0.11	68.1	Non-Toxic	
Cc1ccc(/N=C/c2coc3ccccc3c2=O)c(O)c1	2.26	6.26	14.3	0.44	75.2	Non-Toxic	
Cc1c(C)c2c(c(C)c1O)CCC(C)(C(=O)O)O2 (configuration not stated)							Activity [7]: Active
O=c1c(/C=N/c2ncccc2O)coc2ccc(Br)cc12	2.97	9.81	2.92	3.31	69.8	Non-Toxic	
O=c1c(/C=N/c2cc(Cl)ccc2O)coc2ccc(Br)cc12	2.16	4.55	3.28	1.39	72.1	Non-Toxic	
O=c1c(/C=N/c2ncccc2O)coc2ccccc12	2.23	7.41	2.23		70.8	Non-Toxic	
Oc1c(I)cc(Cl)c2cccnc12							inhibition [11]: 47.7%; inhibition [12]: Active
NCCc1ccc(O)c(O)c1 [DOPAMINE]							Papp at 18 h, 25 ug/ml [9]: 0.8 ×10⁻⁶ cm/s; Papp at 16 h [8]: 1.32 ×10⁻⁶ cm/s
